Reference: paper PMC9854539, “QSAR Studies, Molecular Docking, Molecular Dynamics, Synthesis, and Biological Evaluation of Novel Quinolinone-Based Thiosemicarbazones against Mycobacterium tuberculosis” (Antibiotics, 2022)
In brackets after ≈: the same amount, converted by molar mass.

What was measured:
Type in all cases: cell-based, Mycobacterium tuberculosis
[1] = system: M. tuberculosis Beijing; assay: Spot culture growth inhibition assay (SPOTi), MIC; conditions: multiresistant to isoniazid and rifampicin
[2] = system: M. tuberculosis LAM 9; assay: Spot culture growth inhibition assay (SPOTi), MIC; conditions: multiresistant to isoniazid and rifampicin
[3] = system: M. tuberculosis Haarlem; assay: Spot culture growth inhibition assay (SPOTi), MIC; conditions: multiresistant to isoniazid and rifampicin
[4] = system: M. tuberculosis ATCC 35838; assay: Spot culture growth inhibition assay (SPOTi), MIC; conditions: rifampicin resistant
[5] = system: M. tuberculosis ATCC 35822; assay: Spot culture growth inhibition assay (SPOTi), MIC; conditions: isoniazid resistant
[6] = system: multiresistant M. tuberculosis; conditions: summary of Table 9
[7] = system: M. tuberculosis Orphan; assay: Spot culture growth inhibition assay (SPOTi), MIC; conditions: Mycobacterium tuberculosis; multiresistant to isoniazid and rifampicin
[8] = Mycobacterium tuberculosis, LAM9
[9] = Mycobacterium tuberculosis, ATCC35838
[10] = Mycobacterium tuberculosis, ATCC35822

CC1COc2c(N3CCN(C)CC3)c(F)cc3c(=O)c(C(=O)O)cn1c23 (stereo not drawn) [Oxafloxacin, reference compound]
MIC [1]: 2.76 µM (≈ 0.997 µg/mL)
MIC [2]: 2.76 µM (≈ 0.997 µg/mL)
MIC [3]: 2.76 µM (≈ 0.997 µg/mL)
MIC [4]: 2.76 µM (≈ 0.997 µg/mL)
MIC [5]: 2.76 µM (≈ 0.997 µg/mL)
MIC against the different families of multiresistant M. tuberculosis [6]: 2.76 µM

CC(/C=C/c1cc2ccc(Cl)cc2[nH]c1=O)=N\NC(N)=S [Compound 11d, (E)-2-((E)-4-(7-Chloro-2-oxo-1,2-dihydroquinolin-3-yl)but-3-en-2-ylidene)hydrazine-1-carbothioamide]
MIC [7]: 6.23 µM (≈ 2 µg/mL)
MIC ([1]; Mycobacterium tuberculosis): 0.33 µM (≈ 0.106 µg/mL)
MIC [2, 8]: 3.12 µM (≈ 1 µg/mL)
MIC ([3]; Mycobacterium tuberculosis): 1.56 µM (≈ 0.5 µg/mL)
MIC [4, 9]: 3.33 µM (≈ 1.07 µg/mL)
MIC [5, 10]: 6.23 µM (≈ 2 µg/mL)

CC(/C=C/c1cc2cc(Br)ccc2[nH]c1=O)=N\NC(N)=S [Compound 11e, (E)-2-((E)-4-(6-Bromo-2-oxo-1,2-dihydroquinolin-3-yl)but-3-en-2-ylidene)hydrazine-1-carbothioamide]
MIC [7]: 27.4 µM (≈ 10 µg/mL)
MIC ([1]; Mycobacterium tuberculosis): 0.27 µM (≈ 0.0986 µg/mL)
MIC [2, 8]: 2.74 µM (≈ 1 µg/mL)
MIC ([3]; Mycobacterium tuberculosis): 27.4 µM (≈ 10 µg/mL)
MIC [4, 9]: 2.73 µM (≈ 0.997 µg/mL)
MIC [5, 10]: 1.37 µM (≈ 0.5 µg/mL)

CC(/C=C/c1cc2cc(C)ccc2[nH]c1=O)=N\NC(N)=S [Compound 11b, (E)-2-((E)-4-(6-Methyl-2-oxo-1,2-dihydroquinolin-3-yl)but-3-en-2-ylidene)hydrazine-1-carbothioamide]
MIC [7]: 33.3 µM (≈ 10 µg/mL)
MIC ([1]; Mycobacterium tuberculosis): 1.66 µM (≈ 0.499 µg/mL)
MIC [2, 8]: 16.6 µM (≈ 5 µg/mL)
MIC ([3]; Mycobacterium tuberculosis): 3.33 µM (≈ 1 µg/mL)
MIC [4, 9]: 3.33 µM (≈ 1 µg/mL)
MIC [5, 10]: 3.33 µM (≈ 1 µg/mL)

CC(/C=C/c1cc2cccc(C)c2[nH]c1=O)=N\NC(N)=S [Compound 11c, (E)-2-((E)-4-(8-Methyl-2-oxo-1,2-dihydroquinolin-3-yl)but-3-en-2-ylidene)hydrazine-1-carbothioamide]
MIC [7]: 66.6 µM (≈ 20 µg/mL)
MIC ([1]; Mycobacterium tuberculosis): 0.33 µM (≈ 0.0991 µg/mL)
MIC [2, 8]: 3.29 µM (≈ 0.988 µg/mL)
MIC ([3]; Mycobacterium tuberculosis): 33.3 µM (≈ 10 µg/mL)
MIC [4, 9]: 1.66 µM (≈ 0.499 µg/mL)
MIC [5, 10]: 0.33 µM (≈ 0.0991 µg/mL)
